From the supplement of paper PMC10307832

Columns and labels:
Assay in all cases: relative viability (nuclei count vs DMSO), 5 days (fraction); higher = more cells survive
[1] = compound: Cc1nc(Nc2ncc(C(=O)Nc3c(C)cccc3Cl)s2)cc(N2CCN(CCO)CC2)n1 [Dasatinib] + COc1cccc2cc(-c3nc([C@H]4CC[C@H](C(=O)O)CC4)n4ncnc(N)c34)[nH]c12 [OSI-027] (partner 0.5 µM)
Summary of the method: (§1)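 The day after seeding in 1536-well plates, lung cancer cell lines were treated by pin tool with a single drug, or with a fixed anchor-drug dose together with five library-drug doses (not always all listed) in √10 steps. After 5 days, a combined fix-and-stain solution (final 0.05% Triton X-100, 1% formaldehyde, 1 ug/ml Hoechst) was added. Nuclei counted on 4× images gave relative viability as treated counts over vehicle counts, reported as the median of duplicate plates.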

[2] = compound: C1CC1C(=O)NC2=NNC3=C2C=CC(=C3)C4=CC(=CC=C4)C(=O)NC5CC5 [XMD13-2] + COc1cccc2cc(-c3nc([C@H]4CC[C@H](C(=O)O)CC4)n4ncnc(N)c34)[nH]c12 [OSI-027] (partner 0.5 µM)
Summary of the method: as §1

[3] = compound: C1CC1C(=O)NC2=NNC3=C2C=CC(=C3)C4=CC(=CC=C4)C(=O)NC5CC5 [XMD13-2] + Nc1ncn([C@H]2C[C@H](O)[C@@H](CO)O2)c(=O)n1 [Decitabine] (partner 2 µM)
Summary of the method: as §1

[4] = compound: Cc1ccc(C(=O)Nc2cccc(C(F)(F)F)c2)cc1Nc1cncc(C(N)=O)c1 [ALW-II-49-7] + Nc1nc2[nH]cc(CCc3ccc(C(=O)N[C@@H](CCC(=O)O)C(=O)O)cc3)c2c(=O)[nH]1 [Pemetrexed] (partner 0.2 µM)
Summary of the method: as §1

Row | Cell Line | relative viability ([1]; first compound 0.005 µM) | relative viability ([1]; first compound 0.01581 µM) | relative viability ([1]; first compound 0.05 µM) | relative viability ([1]; first compound 0.1581 µM) | relative viability ([1]; first compound 0.5 µM) | relative viability ([2]; first compound 0.05 µM) | relative viability ([2]; first compound 0.1581 µM) | relative viability ([2]; first compound 0.5 µM) | relative viability ([2]; first compound 1.581 µM) | relative viability ([2]; first compound 5 µM) | relative viability ([3]; first compound 0.05 µM) | relative viability ([3]; first compound 0.1581 µM) | relative viability ([3]; first compound 0.5 µM) | relative viability ([3]; first compound 1.581 µM) | relative viability ([3]; first compound 5 µM) | relative viability ([4]; first compound 0.08 µM) | relative viability ([4]; first compound 0.253 µM) | relative viability ([4]; first compound 0.8 µM) | relative viability ([4]; first compound 2.53 µM) | relative viability ([4]; first compound 8 µM)
1 | NCI-H727 | 0.6 | 0.488 | 0.45 | 0.295 | 0.197 | 0.543 | 0.68 | 0.573 | 0.54 | 0.664 | 1.02 | 0.783 | 0.914 | 0.841 | 1 |  |  |  |  | 
2 | ABC-1 | 0.506 | 0.429 | 0.363 | 0.36 | 0.345 | 0.693 | 0.486 | 0.572 | 0.427 | 0.368 | 1.13 | 1.33 | 1.24 |  | 1.11 |  |  |  |  | 
3 | NCI-H2023 | 0.418 | 0.326 | 0.248 | 0.26 | 0.211 | 0.58 | 0.36 | 0.4 | 0.357 | 0.341 | 0.255 | 0.214 | 0.215 | 0.22 | 0.195 | 0.235 | 0.23 | 0.237 | 0.214 | 0.242
4 | NCI-H2342 | 0.563 | 0.503 | 0.518 | 0.403 | 0.36 | 0.581 | 0.658 | 0.728 | 0.643 | 0.597 | 0.724 | 0.841 | 0.778 | 0.716 | 0.807 | 0.681 | 0.856 | 0.771 | 0.791 | 0.744
5 | SW 1573 | 0.638 | 0.532 | 0.393 | 0.408 | 0.296 | 0.691 | 0.581 | 0.647 | 0.497 | 0.36 | 0.775 | 0.464 | 0.608 | 0.498 | 0.431 | 0.608 | 0.847 | 0.77 | 0.667 | 0.827
6 | NCI-H1993 | 0.512 | 0.524 | 0.491 | 0.532 | 0.554 | 0.448 | 0.5 | 0.511 | 0.558 | 0.432 | 0.625 | 0.552 | 0.663 | 0.632 | 0.669 | 0.61 | 0.515 | 0.631 | 0.591 | 0.64
7 | NCI-H661 | 0.686 | 0.604 | 0.586 | 0.522 | 0.402 | 0.848 | 0.688 | 0.786 | 0.63 | 0.494 | 0.611 | 0.56 | 0.56 | 0.537 | 0.461 | 0.974 | 0.968 | 0.944 | 0.929 | 0.959
8 | NCI-H520 | 0.24 | 0.144 | 0.158 | 0.151 | 0.133 | 0.306 | 0.278 | 0.232 | 0.294 | 0.225 | 0.531 | 0.506 | 0.534 | 0.549 | 0.442 | 0.655 | 0.673 | 0.724 | 0.666 | 0.558
9 | ChaGo-K-1 | 0.556 | 0.501 | 0.52 | 0.459 | 0.423 | 0.642 | 0.545 | 0.597 | 0.542 | 0.497 | 0.521 | 0.53 | 0.528 | 0.511 | 0.496 | 0.266 | 0.274 | 0.263 | 0.268 | 0.262
10 | NCI-H2085 | 0.554 | 0.626 | 0.34 | 0.251 | 0.164 | 0.74 | 0.749 | 0.757 | 0.654 | 0.916 | 0.622 | 0.525 | 0.593 | 0.51 | 0.563 | 0.867 | 1.01 | 0.913 | 1.01 | 0.854
11 | NCI-H1651 | 0.801 | 0.503 | 0.529 | 0.572 | 0.487 | 0.813 | 0.716 | 0.768 | 0.747 | 0.778 | 0.642 | 0.642 | 0.63 | 0.609 | 0.81 | 0.5 | 0.631 | 0.615 | 0.574 | 0.441
12 | RERF-LC-KJ | 0.576 | 0.475 | 0.514 | 0.382 | 0.376 | 0.655 | 0.662 | 0.624 | 0.564 | 0.452 | 0.813 | 0.747 | 0.711 | 0.702 | 0.713 | 0.475 | 0.518 | 0.472 | 0.439 | 0.478
13 | NCI-H1563 | 0.702 | 0.691 | 0.626 | 0.618 | 0.541 | 0.811 | 0.731 | 0.74 | 0.788 | 0.751 |  |  |  |  |  | 0.73 | 0.732 | 0.718 | 0.811 | 0.713
14 | NCI-H2228 | 0.757 | 0.552 | 0.522 | 0.31 | 0.308 | 0.824 | 0.605 | 0.597 | 0.518 | 0.546 |  |  |  |  |  | 0.323 | 0.356 | 0.356 | 0.289 | 0.134
15 | NCI-H1623 | 0.423 | 0.393 | 0.396 | 0.462 | 0.339 | 0.417 | 0.43 | 0.408 | 0.363 | 0.462 |  |  |  |  |  |  |  |  |  | 
